Assay results: ChEMBL document CHEMBL3301361, “Experimental in vitro DMPK and physicochemical data on a set of publicly disclosed compounds”
In brackets after ≈: the same amount, converted by molar mass.

Legend:
[1] = physchem; conditions: octan-1-ol/water
[2] = physchem; conditions: pH 7.4 buffer

Compound | logD ([1]; pH 7.4, LogD7.4) | solubility thermodynamic [2] [µM] | logD ([1]; pH 7.4)
O=C(Nc1ncc(F)s1)[C@H](CC1CCOCC1)c1ccc(S(=O)(=O)C2CC2)cc1 | 3.19 | 214 (≈ 93.8 µg/mL) | 
CN(C(=O)C1CCC1)C1CCN(CCC(c2ccccc2)c2ccccc2)CC1 | 3.2 | 282 (≈ 110 µg/mL) | 
O=c1cc(-c2ccc(O)cc2)oc2cc(O)ccc12 | 3.2 | 2.3 (≈ 0.585 µg/mL) | 
c1ccc(-c2c[nH]c(-c3ccccc3)n2)cc1 | 3.8 | 151 (≈ 33.3 µg/mL) | 
Cc1cnc(Nc2ccc(OCC(O)CN(C)C)cc2)nc1Nc1ccccc1 (centres undefined) | 2 | 724 (≈ 285 µg/mL) | 
Cc1ccc(Oc2ccc(Nc3ncnc4cccc(O[C@H](C)C(=O)N5CCOCC5)c34)cc2C)cn1 | 4.14 | 7.6 (≈ 3.8 µg/mL) | 
CC1(COc2ccc3c(c2)ncn3-c2ccc3cccc(N4CCC(N)CC4)c3n2)COC1 [CRENOLANIB] | 1.99 | 5.1 (≈ 2.26 µg/mL) | 
COc1cc(N2CCN(C(C)=O)CC2)ccc1Nc1ncc(Cl)c(-c2cnc3c(CO)cccn23)n1 | 3.1 | 0.5 (≈ 0.254 µg/mL) | 
CCn1c(-c2nonc2N)nc2c(C#CC(C)(C)O)ncc(OCC3CCCNC3)c21 (centres undefined) | 0.6 | 135 (≈ 57.4 µg/mL) | 
O=C(c1ccc(F)cc1)C(O)c1ccc(F)cc1 (centres undefined) | 2.49 | 933 (≈ 232 µg/mL) | 
CC(=O)Nc1cc(CN2C(=O)N(c3ccc(SC(F)(F)F)cc3)C(=O)C2(C)C)ccn1 | 2.93 | 13.2 (≈ 5.97 µg/mL) | 
CS(=O)(=O)Nc1cccc(NC(=O)CN2CCN(C(=O)C[C@H](N)Cc3ccc(F)c(F)c3)[C@H](Cc3ccccc3)C2)c1 | 2.06 | 661 (≈ 396 µg/mL) | 
CCOc1cc2nccc(Oc3cnc(CC(=O)Nc4n[nH]c(CC)c4C)c(OC)c3)c2cc1OC | 3.29 | 2.2 (≈ 1.08 µg/mL) | 
CCn1c(=O)ccc2cnc(Nc3ccc(OC)c(OC)c3)nc21 | 2.7 | 1.6 (≈ 0.522 µg/mL) | 
Cc1c(-c2ccccc2F)c(=O)n(C[C@H](N)c2ccccc2)c(=O)n1Cc1c(F)cccc1F | 2.76 | 407 (≈ 190 µg/mL) | 
O=C(O)C[C@@H]1c2ccccc2C[C@H]1NC(=O)c1cc2sc(Cl)c(Cl)c2[nH]1 | 2.53 | 1510 (≈ 620 µg/mL) | 
CCCSc1ncccc1C(=O)N(C)C1CCCCC1 | 3.36 | 955 (≈ 279 µg/mL) | 
CS(=O)(=O)c1cccc(Nc2nccc(Nc3cccc4ncoc34)n2)c1 | 2.5 | 5.6 (≈ 2.14 µg/mL) | 
COc1cc(N2CCN(C(C)=O)CC2)ccc1Nc1ncc(C#N)c(-c2cnc3ccccn23)n1 | 2.8 | 0.9 (≈ 0.422 µg/mL) | 
COc1cc2c(Nc3ccc(Br)cc3F)ncnc2cc1OC[C@@H]1CCCN(C)C1 | 3.05 | 170 (≈ 80.7 µg/mL) | 
CN1CCC(COc2cc(OC3CCOCC3)c3c(Nc4c(Cl)ccc5c4OCO5)ncnc3c2)CC1 | 2.59 | 1380 (≈ 727 µg/mL) | 
Cc1ncc(-c2ccc([C@H]3CC[C@H](CC(=O)O)CC3)cc2)nc1C(N)=O | 1 | 372 (≈ 131 µg/mL) | 
Cc1nc(C)c(C(=O)N[C@@H](Cc2cccc(Cl)c2)C(=O)NCC#N)s1 | 2 | 57.5 (≈ 21.7 µg/mL) | 
COc1ccc(Cl)cc1NC(=O)Nc1cnccn1 | 3.63 | 0.7 (≈ 0.195 µg/mL) | 
O=C(CS(=O)(=O)c1ccccc1)c1ccccc1 | 1.86 | 234 (≈ 61 µg/mL) | 
CN(C)CC(O)COc1ccc(Nc2nccc(N(CC#N)c3cc(Cl)ccc3Cl)n2)cc1 (centres undefined) | 2.4 | 575 (≈ 280 µg/mL) | 

Compound | logD ([1]; pH 7.4, LogD7.4) | solubility thermodynamic [2] [µM] | logD ([1]; pH 7.4)
O=c1cc(-c2ccc(O)cc2)[nH]c2ccccc12 | 2.34 | 4.7 (≈ 1.12 µg/mL) | 
COc1cc(N2CCN(C(C)=O)CC2)ccc1Nc1ncc(Cl)c(-c2cnc3c(N)cccn23)n1 | 3.4 | 0.9 (≈ 0.444 µg/mL) | 
O=C(NCCNC(=O)c1cn(-c2ccccc2)nc1C(F)(F)F)c1ccc(Cl)cn1 | 3.8 | 3.4 (≈ 1.49 µg/mL) | 
c1nc(N2CCCCC2)c2nc[nH]c2n1 | 1.84 | 501 (≈ 102 µg/mL) | 
CNC(=O)Nc1nc2ccc(-c3cncc(S(=O)(=O)NC(C)(C)C)c3)cn2n1 | 1.58 | 87.1 (≈ 35.1 µg/mL) | 
CN(C)C(=O)[C@H](Cc1ccccc1)NC(=O)c1cc2sccc2[nH]1 | 3.1 | 17 (≈ 5.8 µg/mL) | 
CN(C(=O)c1ccncc1)C1CCN(CCC(c2ccccc2)c2ccccc2)CC1 | 2.8 | 537 (≈ 222 µg/mL) | 
O=C(c1ccc(F)cc1)C1CCN(C(=S)Nc2ccc(F)cc2)CC1 | 3.4 | 2.5 (≈ 0.901 µg/mL) | 
C[C@@H](Oc1cccc2ncnc(Nc3ccc(OCc4ccccn4)c(Cl)c3)c12)C(=O)N(C)C | 3.67 | 6.2 (≈ 2.96 µg/mL) | 
CCN(CC)C(=O)c1ccc2[nH]c(-c3cc(C)cc(C)c3)c(CCNCCCCc3ccncc3)c2c1 | 3.3 | 871 (≈ 433 µg/mL) | 
COc1cc(CCc2cc(Nc3ccnc(NCc4cc(C)no4)n3)n[nH]2)cc(OC)c1 | 3.1 | 0.6 (≈ 0.261 µg/mL) | 
O=C(c1ccc(F)cc1)C1CCN(C(=O)c2ccc(F)cc2)CC1 | 2.9 | 30.9 (≈ 10.2 µg/mL) | 
COc1cc(OC2CCN(C)CC2)c2c(Nc3cccc4c3OCO4)ncnc2c1 | 3.02 | 91.2 (≈ 37.3 µg/mL) | 
CC(C)OC(=O)N1CCC(Oc2ncnc3c2cnn3-c2ccc(S(C)(=O)=O)cc2F)CC1 | 3 | 2.1 (≈ 1 µg/mL) | 
Cc1ccc(NC(=O)C2CC2)cc1-n1cnc2ccc(N3CCN(C)CC3)cc2c1=O | 2.17 | 1510 (≈ 632 µg/mL) | 
O=c1[nH]nc(Cc2ccccc2)c2ccccc12 | 2.8 | 24.5 (≈ 5.79 µg/mL) | 
Oc1cc(-c2ccccc2)nc2ccnn12 |  | 813 (≈ 172 µg/mL) | 1.3
COc1ccc2c(c1)[nH]c1c(C)nccc12 [HARMINE] |  | 55 (≈ 11.7 µg/mL) | 2.9
Cc1ncc(-c2nc(Nc3ccc(C(=O)N4CCN(C)CC4)cc3)ncc2F)n1C(C)C | 2.49 | 57.5 (≈ 25.2 µg/mL) | 
O=C(CO)N1CCC[C@@H]1COc1cccc2ncnc(Nc3ccc(OCc4ccccn4)c(Cl)c3)c12 | 3.71 | 2.2 (≈ 1.14 µg/mL) | 
Cc1cnc(NC(=O)Cc2ccccc2)s1 | 2.9 | 17 (≈ 3.95 µg/mL) | 
COc1cc(Nc2ncnc3cccc(O[C@H](C)C(=O)N4CCOCC4)c23)ccc1Oc1ccc(C)nc1 | 3.6 | 37.2 (≈ 19.2 µg/mL) | 
COc1cc(N2CCN(C(C)=O)CC2)ccc1Nc1ncc(Cl)c(-c2cnc3cc(N4CCCC4)ccn23)n1 | 3.5 | 1.4 (≈ 0.766 µg/mL) | 
COCCOCCOc1ccc(-c2cc(C(N)=O)c(NC(N)=O)s2)cc1 | 2.21 | 20.9 (≈ 7.93 µg/mL) | 
COc1ccc(-c2c(-c3ccc(O)cc3O)n[nH]c2C)cc1 | 3.37 | 209 (≈ 61.9 µg/mL) | 
O=C(COc1ccccc1)c1ccccc1 | 2.87 | 170 (≈ 36 µg/mL) | 

Compound | logD ([1]; pH 7.4, LogD7.4) | solubility thermodynamic [2] [µM] | logD ([1]; pH 7.4)
NC1=NN(c2cccc(C(F)(F)F)c2)CC1 [BW-755C] | 2.55 | 1450 (≈ 331 µg/mL) | 
CS(=O)(=O)c1cccc(Nc2nccc(Nc3c(Cl)ccc4ccoc34)n2)c1 | 3.7 | 11.5 (≈ 4.77 µg/mL) | 
O=C(Nc1ccc(Cl)c(Cl)c1)N1CCN(C[C@@H]2CCCN(C3CC3)C2)CC1 | 3.57 | 288 (≈ 119 µg/mL) | 
Clc1n[nH]c2cccc(Nc3ccnc(Nc4cc(N5CCOCC5)cc(N5CCOCC5)c4)n3)c12 | 2.78 | 5.1 (≈ 2.59 µg/mL) | 
CCc1cccc(CC)c1NC(=O)N1Cc2n[nH]c(NC(=O)c3ccc(N4CCN(C)CC4)cc3)c2C1 [PHA-680632] | 3.31 | 107 (≈ 53.8 µg/mL) | 
COc1cc2ncnc(Nc3cccc(Cl)c3F)c2cc1CN1CCC[C@H]1C(N)=O | 3.58 | 257 (≈ 110 µg/mL) | 
Nc1nc(N)c(C(=O)Nc2ccccn2)nc1Cl | 2.67 | 4.5 (≈ 1.19 µg/mL) | 
COc1cc2ncnc(Nc3ccc(F)c(Cl)c3)c2cc1OCCCN1CCCCC1 | 3.3 | 20 (≈ 8.9 µg/mL) | 
CCOc1ccc2nc(N)sc2c1 | 2.4 | 851 (≈ 165 µg/mL) | 
Cc1nc(-c2ccccc2)c(-c2ccc(CN3CCC(n4c(=O)[nH]c5ccccc54)CC3)cc2)[nH]c1=O |  | 27.5 (≈ 13.5 µg/mL) | 3.9
COc1cc(N2CCN(C(C)=O)CC2)ccc1Nc1ncc(C)c(-c2cnc3ccccn23)n1 | 2.9 | 5 (≈ 2.29 µg/mL) | 
CC(C)Oc1cc(OCCc2ccsc2)cc(C(=O)Nc2ccc(C(=O)O)cn2)c1 | 1.74 | 33.9 (≈ 14.5 µg/mL) | 
Cc1ncc(-c2ccnc(Nc3ccc(N(C)C)cc3)n2)n1C(C)C | 3.51 | 100 (≈ 33.6 µg/mL) | 
O=C(N[C@@H](Cc1ccccc1)[C@@H](O)C(=O)N1C[C@@H](O)[C@@H](O)C1)c1cc2cc(Cl)ccc2[nH]1 [INGLIFORIB] | 2.8 | 436 (≈ 200 µg/mL) | 
C[C@H](NC1=NC(=O)[C@](C)(C(F)(F)F)S1)c1ccccc1F | 3.1 | 87.1 (≈ 27.9 µg/mL) | 
CC1(C)Oc2ncnc(N)c2N=C1c1ccc([C@H]2CC[C@H](CC(=O)O)CC2)cc1 | 1.32 | 118 (≈ 46.4 µg/mL) | 
O=C(c1cc(Cc2n[nH]c(=O)c3ccccc23)ccc1F)N1CCN(C(=O)C2CCOC2)CC1 (centres undefined) | 0.8 | 380 (≈ 177 µg/mL) | 
CCn1cc(NC(=O)Cc2ccc(Oc3ccnc4cc(F)ccc34)cc2OC)cn1 | 3.93 | 2 (≈ 0.841 µg/mL) | 
Cc1nc2nc(-c3cccnc3)nn2c(O)c1Cc1ccccc1 | 1.52 | 29.5 (≈ 9.36 µg/mL) | 
CC(C)(C)Cn1c(CN2C(=O)CC3(CCNCC3)C2=O)cc2cnc(C#N)nc21 | 0.75 | 575 (≈ 227 µg/mL) | 
CNC(=O)c1cc(-c2nc(N3CCOCC3)cc(C3(S(C)(=O)=O)CC3)n2)c2cc[nH]c2c1 | 1.7 | 46.8 (≈ 21.3 µg/mL) | 
COCCOc1cc(Nc2nccc(N(C)c3cc(CO)ccc3C)n2)cc(N2CCOCC2)c1 | 3.3 | 126 (≈ 60.4 µg/mL) | 
CN1CCN(CC(=O)Nc2ccc(-c3cccn4c(=O)cc(N5CCOCC5)nc34)c3sc4ccccc4c23)CC1 | 2.6 | 5.4 (≈ 3.07 µg/mL) | 
O=C(Nc1ccc(N2CCOCC2)cc1)c1nnc(NC(=O)C2(c3ccc(Cl)cc3)CCCC2)o1 | 3.72 | 8.7 (≈ 4.31 µg/mL) | 
COc1cc(N2CCN(CCO)CC2)ccc1Nc1ncc(Cl)c(-c2cnc3ccccn23)n1 | 3.2 | 66.1 (≈ 31.7 µg/mL) | 
